# US20240368676A1, “KITS FOR DETECTING ONE OR MORE TARGET ANALYTES IN A SAMPLE AND METHODS OF MAKING AND USING THE SAME” (Meso Scale Technologies, LLC., priority 2020, published 2024)
# Where two headings read alike, the source gives them in different places.
# Tests used:
# [1] = system: rs2273535 (AURKA F31J); experiment: Lung cancer SNP panel OLA on PCR-amplified cell line DNA; details: PCR-amplified DNA from HIL-60 cell line
# Experimental: (§1) The probe sequences used for each mutation are provided in Tables 42 (upstream) and 43 (downstream), below.
# (§2) To test the probes for each mutation, probes from either the 1st or 2nd strand were chosen and tested against DNA extracted from a HIL-60 cell line. DNA was extracted using the Gentra Puregene Cell Kit (Qiagen Cat #158388) and 10 ng DNA was amplified using the MyTaq HS Master Mix (Bioline Cat #BIO-25045) and assay-specific PCR forward and revers primers, shown in Tables 44 and 45, respectively.
# (§3) Following amplification, OLA was performed as described in Example 7 and the frequency of WT and Mutant alleles was determined.
# [2] = system: spot with the capture oligonucleotide with SEQ ID NO: 5; experiment: Comparison of blocking conditions for preparing arrays (cross-reactivity from cross-contamination); type: binding
# Experimental: Blocking conditions for removing excess capture oligonucleotides from arrays were compared. Plates with printed arrays were prepared as described in Example 2 and blocked and washed as described in Example 4, except for varying the composition of the blocking solution. Specificity of the arrays was then characterized as described in Example 4.
# [3] = system: rs3842 (ABCB1 c.*193A>G); experiment: Lung cancer SNP panel OLA on PCR-amplified cell line DNA; details: PCR-amplified DNA from HIL-60 cell line
# Experimental: as §1, §2, §3
# [4] = system: rs1051730 (CHRNA3 D398N); experiment: as above; details: PCR-amplified DNA from HIL-60 cell line
# Experimental: as §1, §2, §3
# [5] = system: miR-122; experiment: miRNA detection using an RNase protection assay (chimeric DNA/RNA probe, ECL); details: synthetic miR-122 miRNA
# Description: An RNase protection assay can be used for miRNA quantification. In the assay, a DNA/RNA chimeric probe is used that contains an oligonucleotide tag sequence that is complementary a capture oligonucleotide sequence and a miRNA complementary sequence. The oligonucleotide tag sequence can be a single stranded DNA (ssDNA) sequence included on the 5′ end of the chimeric probe and the miRNA complementary sequence can be a single stranded RNA (ssRNA) sequence at the 3′ end of the chimeric probe, along with a terminal 3′ biotin.
# Briefly, miRNA can be detected as follows: • 1). Hybridize miRNA to the chimeric probe in a thermal cycler to form a hybridization product; • 2). Block assay plate using one or more known blocking agent; • 3). Add hybridization product with formamide to the blocked assay plate under conditions in which the oligonucleotide tag sequence of the hybridization product can hybridize to the capture oligonucleotides on the assay plate. Incubate at 37° C.; • 4). Perform on-plate digestion of ssRNA with RNase A or RNase I (30° C.-37° C.) to digest the following: • a). ssRNA that has not been hybridized to the probe; • b). Probe hybridized to the plate without the complementary miRNA; and • c). […] Add Read Buffer B to assay plate and measure ECL signal generation with MSD Imager; and • 7). Compare the results against a calibration curve for quantification. […]
# [6] = system: miR-122; details: reported by Rissin et al., PLOS One (2017); cited from earlier work
# [7] = system: rs8034191 (LOC123688 or HYKK c.337+256T>C); experiment: Lung cancer SNP panel OLA on PCR-amplified cell line DNA; details: PCR-amplified DNA from HIL-60 cell line
# Experimental: as §1, §2, §3
# [8] = system: rs1801270 (CDKN1A c.93C>A); experiment: as above; details: PCR-amplified DNA from HIL-60 cell line
# Experimental: as §1, §2, §3
# [9] = system: rs1801133 (MTHFR C677T); experiment: as above; details: PCR-amplified DNA from HIL-60 cell line
# Experimental: as §1, §2, §3
# [10] = system: rs212090 (ABCC1 c.*866T>A); experiment: as above; details: PCR-amplified DNA from HIL-60 cell line
# Experimental: as §1, §2, §3
# [11] = system: rs17879961 (CHEK2 c.599T>C); experiment: as above; details: PCR-amplified DNA from HIL-60 cell line
# Experimental: as §1, §2, §3
compound,measurement,setting,value
"AURKA rs2273535 (DNA CTTCCATTCTAGGCTACAGCTC; listed as DNA, chemistry not given here)",% Mutant,[1],0.5%
same,% Wild-type,[1],99.5%
same,Genotype,[1],Homozygous (WT) (Measured mutation percentages <20% were classified as homozygous wildtype samples)
N[C@@H](CS)C(=O)O [cysteine],cross-reactivity,[2]; cysteine added to the Tris/Triton formulation,≤ 0.01%
same,blocking effectiveness,"[2]; cysteine concentrations ranging from 5 to 50 to 500 mM, separate experiments",effective at blocking
"ABCB1 rs3842 (DNA AGCAAGGCAGTCAGTTACAG; listed as DNA, chemistry not given here)",% Mutant,[3],52.4%
same,% Wild-type,[3],47.6%
same,Genotype,[3],Heterozygous (mutation percentages between 30% and 70% were classified as heterozygous (50% mutation))
"CHRNA3 rs1051730 (DNA CGGATGTACAGCGAGTATGTG; listed as DNA, chemistry not given here)",% Mutant,[4],0.1%
same,% Wild-type,[4],99.9%
same,Genotype,[4],Homozygous (WT) (Measured mutation percentages <20% were classified as homozygous wildtype samples)
"miR-122: synthetic miR-122 miRNA, target sequence in Table 47 (UGGAGUGUGACAAUGGUGUUUG; listed as RNA, chemistry not fully specified; the letters are possibly those of the target site)",concentration detected,[5],160 fM
same,concentration detected,[6],500 fM
"LOC123688 rs8034191 (DNA CCCTGATTTCCACAAGTCC; listed as DNA, chemistry not given here)",% Mutant,[7],1.0%
same,% Wild-type,[7],99.0%
same,Genotype,[7],Homozygous (WT) (Measured mutation percentages <20% were classified as homozygous wildtype samples)
"CDKN1A rs1801270 (DNA TCGAAGTTCCATCGCTCAC; listed as DNA, chemistry not given here)",% Mutant,[8],0.1%
same,% Wild-type,[8],99.9%
same,Genotype,[8],Homozygous (WT) (Measured mutation percentages <20% were classified as homozygous wildtype samples)
"MTHFR rs180113 (DNA CTTCACAAAGCGGAAGAATGTG; listed as DNA, chemistry not given here)",% Mutant,[9],42.8%
same,% Wild-type,[9],57.2%
same,Genotype,[9],Heterozygous (mutation percentages between 30% and 70% were classified as heterozygous (50% mutation))
"ABCC1 rs212090 (DNA AGGCCATCTCCTTAATATTTACCC; listed as DNA, chemistry not given here)",% Mutant,[10],48.6%
same,% Wild-type,[10],51.4%
same,Genotype,[10],Heterozygous (mutation percentages between 30% and 70% were classified as heterozygous (50% mutation))
"CHEK2 rs17879961 (DNA TCCATTGCCACTGTGATCTTC; listed as DNA, chemistry not given here)",% Mutant,[11],0.8%
same,% Wild-type,[11],99.2%
same,Genotype,[11],Homozygous (WT) (Measured mutation percentages <20% were classified as homozygous wildtype samples)
